Assay results reported in patent EP4623702A1, “ORAL PRODUCT” (Nicoventures Trading Limited, priority 2024, dated 2025).
Where two headings read alike, the source gives them in different places.

Legend:
[1] = target: T1, MDCK-MDR1 cell line heterologously expressing the human P-gp transporter (MDR1) (Homo sapiens, UniProt P08183); settings: for effect of quercetin on BBB permeability of the compound: MDCK-MDR1
[2] = target: T1, MDCK-MDR1 cell line heterologously expressing the human P-gp transporter (MDR1); assay: in vitro; settings: dog, MDCK-MDR1, pH 7.4
p-glycoprotein = p-glycoprotein (Homo sapiens, UniProt P08183); settings: value stated as basis for the 30 µM inhibitor concentration; no source given; cited from earlier work
[3] = target: P-gp (MDR1, ABCB1), human (Homo sapiens, UniProt P08183); assay: in vitro; settings: dog, MDCK-MDR1, pH 7.4
[4] = target: T1, MDCK-MDR1 cell line heterologously expressing the human P-gp transporter (MDR1); assay: MDCK-MDR1 permeability assay (in vitro model for BBB permeation, P-gp substrate identification, with/without inhibitors); settings: Compound Alone; apical to basolateral; 1 or 10 µM, 60 minutes, pH 7.4 (Table 2)

Sequence of P-gp (MDR1, ABCB1), human (P08183 whole entry): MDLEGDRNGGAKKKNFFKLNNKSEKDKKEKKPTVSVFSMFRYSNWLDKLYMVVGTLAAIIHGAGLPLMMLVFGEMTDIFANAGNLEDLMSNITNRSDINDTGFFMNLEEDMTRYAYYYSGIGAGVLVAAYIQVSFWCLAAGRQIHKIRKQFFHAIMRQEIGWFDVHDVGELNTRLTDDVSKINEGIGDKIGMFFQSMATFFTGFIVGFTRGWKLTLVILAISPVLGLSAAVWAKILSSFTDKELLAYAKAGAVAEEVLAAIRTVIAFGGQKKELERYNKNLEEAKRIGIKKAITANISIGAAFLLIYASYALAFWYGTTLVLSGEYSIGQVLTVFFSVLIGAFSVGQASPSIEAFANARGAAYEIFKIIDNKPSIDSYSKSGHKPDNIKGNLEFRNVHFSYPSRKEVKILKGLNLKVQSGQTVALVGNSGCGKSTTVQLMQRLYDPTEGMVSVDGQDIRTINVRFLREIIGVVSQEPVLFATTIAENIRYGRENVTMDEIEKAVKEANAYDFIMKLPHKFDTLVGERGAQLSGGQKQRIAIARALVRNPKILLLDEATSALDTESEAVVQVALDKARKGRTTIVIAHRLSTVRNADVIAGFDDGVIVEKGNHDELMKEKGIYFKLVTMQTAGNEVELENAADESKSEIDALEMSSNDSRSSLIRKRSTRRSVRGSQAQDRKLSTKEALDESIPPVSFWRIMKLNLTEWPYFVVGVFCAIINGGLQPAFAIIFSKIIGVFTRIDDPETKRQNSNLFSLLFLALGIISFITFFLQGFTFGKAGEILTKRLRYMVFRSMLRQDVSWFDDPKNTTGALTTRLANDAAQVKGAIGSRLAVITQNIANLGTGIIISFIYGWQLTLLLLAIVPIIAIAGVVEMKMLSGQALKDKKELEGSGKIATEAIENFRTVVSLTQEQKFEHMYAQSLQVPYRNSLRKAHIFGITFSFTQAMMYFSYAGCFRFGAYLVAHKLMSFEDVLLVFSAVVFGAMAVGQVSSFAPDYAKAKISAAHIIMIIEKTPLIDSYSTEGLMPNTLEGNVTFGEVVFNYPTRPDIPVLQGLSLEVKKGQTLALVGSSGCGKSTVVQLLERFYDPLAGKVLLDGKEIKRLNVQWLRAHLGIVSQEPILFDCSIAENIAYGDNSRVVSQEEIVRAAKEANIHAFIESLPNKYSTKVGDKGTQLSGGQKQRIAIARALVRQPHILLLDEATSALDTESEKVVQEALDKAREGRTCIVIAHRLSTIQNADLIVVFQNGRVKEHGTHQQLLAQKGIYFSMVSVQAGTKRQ
T1 sequence (P08183 whole entry): as above
Sequence of p-glycoprotein (P08183 whole entry): as above

Row | SMILES | A2B Apparent permeability (Papp) ([1]; dog, MDCK-MDR1, 60 min, pH 7.4) [nm/s] | Papp A→B at 60 min [3] [nm/s] | Papp B→A at 60 min [3] [nm/s] | Papp at 60 min [3] [nm/s] | A2B Apparent permeability (Papp) ([1]; MDCK-MDR1, pH 7.4) [nm/s] | B2A Apparent permeability (Papp) ([1]; MDCK-MDR1, pH 7.4) [nm/s] | Papp A→B at 1 h [2] [nm/s] | Papp B→A at 1 h [2] [nm/s] | further results
1 | CC1=C(C)C(=O)O[C@@H]([C@@H](C)[C@H]2CC[C@H]3[C@@H]4[C@@H]5O[C@@H]5[C@@]5(O)CC=CC(=O)[C@]5(C)[C@H]4CC[C@]23C)C1 [Withanolide B] | – | – | – | – | 135 | 116 | 120 | 133 | –
2 | CC1=C(C=O)C(C)(C)CC=C1 [Safranal] | – | – | – | – | – | – | 900 | 433 | –
3 | CC1=C(C)C(=O)O[C@@H]([C@](C)(O)[C@H]2CC[C@H]3[C@@H]4[C@@H]5O[C@@H]5[C@@]5(O)CC=CC(=O)[C@]5(C)[C@H]4CC[C@]23C)C1 [Withanolide A] | – | – | – | – | 173 | 200 | 36.5 | 222 | effect of quercetin on BBB permeability of the compound [1]: did not, for instance, significantly enhance
4 | O=C(O)[C@H]1O[C@@H](Oc2cc(O)c3c(=O)cc(-c4ccc(O)c(O)c4)oc3c2)[C@H](O)[C@@H](O)[C@@H]1O [Luteolin-7-glucoronide, Luteolin 7-glucuronide] | – | – | – | – | 1.75 | 1.34 | 2.05 | 0.76 | –
5 | O=C(/C=C/C=C/c1ccc2c(c1)OCO2)N1CCCCC1 [Piperine, (2E,4E)-5-(2H-1,3-benzodioxol-5-yl)-1-(piperidin-1-yl)-penta-2,4-dien-1-one] | – | – | – | – | – | – | – | – | EC50 (p-glycoprotein): 30 µM
6 | O=c1cc(-c2ccc(O)cc2)oc2cc(O)cc(O)c12 [Apigenin] | 97.1 | 97.1 | 191 | 10 to 100 | – | – | – | – | –
7 | CC1=C(C)C(=O)O[C@@H]([C@@H](C)[C@@]2(O)CC[C@H]3[C@@H]4[C@@H]5O[C@@H]5[C@@]5(O)CC=CC(=O)[C@]5(C)[C@H]4CC[C@@]32C)C1 [Withanone] | – | – | – | – | – | – | – | – | effect of quercetin on BBB permeability of the compound [1]: did not, for instance, significantly enhance; B2A Apparent permeability (Papp) ([1]; dog, MDCK-MDR1, pH 7.4): 197 nm/s; Papp A→B [3]: 12.3 nm/s; Papp B→A [3]: 316 nm/s

Now from value to compound, other results behind:

Row | A2B Apparent permeability (Papp) ([1]; dog, MDCK-MDR1, 60 min, pH 7.4) [nm/s] | Papp A→B at 60 min [3] [nm/s] | Papp B→A at 60 min [3] [nm/s] | Papp at 60 min [3] [nm/s] | SMILES | A2B Apparent permeability (Papp) ([1]; MDCK-MDR1, pH 7.4) [nm/s] | B2A Apparent permeability (Papp) ([1]; MDCK-MDR1, pH 7.4) [nm/s] | Papp A→B at 1 h [2] [nm/s] | Papp B→A at 1 h [2] [nm/s] | further results
8 | – | 1.74 | 3.5 | < 10 | CC1(C)CC[C@]2(C(=O)O)CC[C@]3(C)C(=CC[C@@H]4[C@@]5(C)CC[C@H](O)C(C)(C)[C@@H]5CC[C@]43C)[C@@H]2C1 [Oleanoic acid, Oleanolic acid] | – | – | – | – | A2B Apparent permeability (Papp) [4]: 1.74 nm/s
9 | 16.7 | 16.7 | 58.4 | 10 to 100 | CC(/C=C/C=C(\C)C(=O)O)=C\C=C\C=C(C)\C=C\C=C(/C)C(=O)O [Crocetin] | – | – | – | – | –
10 | 2.2 | 2.2 | 31.2 | < 10 | CC(/C=C/C=C(\C)C(=O)O[C@@H]1O[C@H](CO[C@@H]2O[C@H](CO)[C@@H](O)[C@H](O)[C@H]2O)[C@@H](O)[C@H](O)[C@H]1O)=C\C=C\C=C(C)\C=C\C=C(/C)C(=O)O[C@@H]1O[C@H](CO[C@@H]2O[C@H](CO)[C@@H](O)[C@H](O)[C@H]2O)[C@@H](O)[C@H](O)[C@H]1O [Crocin] | – | – | – | – | –
